# Source: patent publication US20120277368A1, “AQUEOUS DISPERSION PRESSURE-SENSITIVE ADHESIVE COMPOSITION AND PRESSURE-SENSITIVE ADHESIVE SHEET” (NITTO DENKO CORPORATION, priority 2011, published 2012)
# Test: Solubility in water (25° C.) of crosslinking agent
# Format: physicochemical
# Description: Furthermore, the compound (B) is a water-soluble compound. […] (parts by weight of the compound capable of being dissolved per 100 parts by weight of water) is 1 g or more (1 g/100 g or more), preferably 10 g or more (10 g/100 g or more), and more preferably 30 g or more (30 g/100 g or more). The solubility of the compound (B) in water can be measured, for example, as follows.
# Water (25° C.) and a compound (B), having the same weight, are mixed by using a stirrer under the conditions of a rotation speed of 300 rpm and 10 minutes, and the mixture is separated into an aqueous phase and an oil phase by centrifugation. The aqueous phase is then collected and dried at 120° C. for 1 hour, and the nonvolatile content (parts by weight of the nonvolatile component per 100 parts by weight of water) in the aqueous phase is determined from the weight loss on drying.
smiles,measurement,value
"C1OC1CN(CC1CO1)CC1CO1 (stereo not shown) [N,N,N-tri(2,3-epoxypropyl)amine]",solubility in water (25° C.),100 g/100 g
